These results are taken from the NIST ThermoML archive (doi:10.1021/je400029t).

Structures are written as SMILES. ± gives the expanded uncertainty stated by the source.

Series [1] is described as follows: Molar enthalpy of transition or fusion. Conditions: Crystal; DSC.
The conditions of series [2]: Crystal; DTA.

As to `COc1ccc(C(=O)O)cc1OC` [3,4-dimethoxybenzoic acid], in series [1], the “Molar enthalpy of transition or fusion” value amounted to 7.07 ± 0.311 kcal/mol. Further, the Normal melting temperature in series [2] turned out to be 179.97 ± 0.53 °C.
